Common to all, as to format: cell-based
For one test, the system named is HIV-1 strain 92HT599. Put plainly: Antiviral activity against HIV-1 strain 92HT599 in MT2 cells (p24 estimation). As to conditions: HIV-1 92HT599, ~96 hours. The method in brief:
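Percent inhibition versus vehicle controls came from p24 quantified in supernatant aliquots. These were taken after ~96 h incubation of compound (DMSO ≤1%) with MT2 cells infected at 10 TCID50/30,000 cells.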

The test system of a further test is HIV-1 pNL4-3 WT. The test can be described thus: Antiviral activity against pNL4-3/WT strain in MT4 cells (p24 estimation). To be noted: Human immunodeficiency virus 1, MT4, 96 h, read-out: pNL4-3 WT IC50. Here is the method:
(§1) Example 78: Evaluation of Compounds Antiviral Activity Against pNL4-3/WT & V7A Strains in MT4 Cells
(§2) MT4 cells were Transfected with HIV-1 Plasmid (pNL4-3-WT & V7A) (Cells were incubating with required number of TCID50 of HIV-1 for 1.5 h at 37° C.). After infection, the infected cells were plated at the concentration of 3×10^4 cells per well in 96 well plate. Test compound was added to the test plate in defined format with the final concentration of DMSO is not more than 1%. Incubation was carried out in CO2 incubator for 4 days for viral infection. At the end of incubation period an aliquot from each well was taken for p24 estimation. p24 estimation was carried out using Advance biosciences kit as per the procedure detailed by supplier.

Another test has as its system HIV-1 pNL4-3 V7A. Put plainly: Antiviral activity against pNL4-3/V7A strain in MT4 cells (p24 estimation). To be noted: Human immunodeficiency virus 1, MT4, 96 h, read-out: pNL4-3 V7A IC50. Here is the method: as §1, §2
Setting [1] is: Human immunodeficiency virus 1, 0% serum binding assay, read-out: IC50 0% serum.
Setting [2] is: Human immunodeficiency virus 1, 40% serum binding assay, read-out: IC50 40% serum.

Like-named read-outs stand apart in the source and are kept apart here.

As for `CC(C)C1=C2[C@H]3CC[C@@H]4[C@@]5(C)CC[C@H](OC(=O)[C@H]6C[C@@H](C(=O)O)C6(C)C)C(C)(C)[C@@H]5CC[C@@]4(C)[C@]3(C)CC[C@@]2(NC(=O)C(C)(C)NC(=O)c2ncccn2)CC1=O` [Example 32, (1R,3S)-3-((((3aR,5aR,5bR,7aR,9S,11aR,11bR,13aS)-1-isopropyl-5a,5b,8,8,11a-pentamethyl-3a-(2-methyl-2-(pyrimidine-2-carboxamido)propanamido)-2-oxo-3,3a,4,5,5a,5b,6,7,7a,8,9,10,11,11a,11b,12,13,13a-octadecahydro-2H-cyclopenta[a]chrysen-9-yl)oxy)carbonyl)-2,2-dimethylcyclobutane-1-carboxylic acid], the IC50 (as a rule, the concentration needed to halve the response being measured) in the test with HIV-1 strain 92HT599 (setting [1]) is 3.01 to 10 nM; in the test on HIV-1 strain 92HT599 (setting [2]) it was above 200 nM; in the test on HIV-1 pNL4-3 WT, above 10 nM; in the test with HIV-1 pNL4-3 V7A, above 50 nM.
`Cc1ccc(C(=O)NC2(C(=O)N[C@@]34CC[C@]5(C)[C@H](CC[C@@H]6[C@@]7(C)CC[C@H](OC(=O)[C@H]8C[C@@H](C(=O)O)C8(C)C)C(C)(C)[C@@H]7CC[C@]65C)C3=C(C(C)C)C(=O)C4)CC2)cn1` [Example 38, (1R,3S)-3-((((3aR,5aR,5bR,7aR,9S,11aR,11bR,13aS)-1-isopropyl-5a,5b,8,8,11a-pentamethyl-3a-(1-(6-methylnicotinamido)cyclopropane-1-carbox amido)-2-oxo-3,3a,4,5,5a,5b,6,7,7a,8,9,10,11,11a,11b,12,13,13a-octadecahydro-2H-cyclopenta[a]chrysen-9-yl)oxy)carbonyl)-2,2-dimethylcyclobutane-1-carboxylic acid]: the IC50 with HIV-1 strain 92HT599 (setting [1]) is below 3 nM; with HIV-1 strain 92HT599 (setting [2]) it was below 50 nM; in the test with HIV-1 pNL4-3 WT it was below 5 nM; with HIV-1 pNL4-3 V7A, below 10 nM.
The matching figures for `Cc1cccc(NC(=O)NC(C)(C)C(=O)N[C@@]23CC[C@]4(C)[C@H](CC[C@@H]5[C@@]6(C)CC[C@H](OC(=O)[C@H]7C[C@@H](C(=O)O)C7(C)C)C(C)(C)[C@@H]6CC[C@]54C)C2=C(C(C)C)C(=O)C3)n1` [Example 72, (1R,3S)-3-((((3aR,5aR,5bR,7aR,9S,11aR,11bR,13aS)-1-isopropyl-5a,5b,8,8,11a-pentamethyl-3a-(2-methyl-2-(3-(6-methylpyridin-2-yl)ureido)propanamido)-2-oxo-3,3a,4,5,5a,5b,6,7,7a,8,9,10,11,11a,11b,12,13,13a-octadecahydro-2H-cyclopenta[a]chrysen-9-yl)oxy)carbonyl)-2,2-dimethylcyclobutane-1-carboxylic acid]: below 3 nM, below 50 nM, below 5 nM and above 50 nM.
Turning to `Cc1nc(C)c(C(=O)NC(C)(C)C(=O)N[C@@]23CC[C@]4(C)[C@H](CC[C@@H]5[C@@]6(C)CC[C@H](OC(=O)[C@H]7C[C@@H](C(=O)O)C7(C)C)C(C)(C)[C@@H]6CC[C@]54C)C2=C(C(C)C)C(=O)C3)s1` [Example 14, (1R,3S)-3-((((3aR,5aR,5bR,7aR,9S,11aR,11bR,13aS)-3a-(2-(2,4-dimethylthiazole-5-carboxamido)-2-methylpropanamido)-1-isopropyl-5a,5b,8,8,11a-pentamethyl-2-oxo-3,3a,4,5,5a,5b,6,7,7a,8,9,10,11,11a,11b,12,13,13a-octadecahydro-2H-cyclopenta[a]chrysen-9-yl)oxy)carbonyl)-2,2-dimethylcyclobutane-1-carboxylic acid], the IC50 with HIV-1 strain 92HT599 (setting [1]) was below 3 nM; with HIV-1 strain 92HT599 (setting [2]) it was below 50 nM; with HIV-1 pNL4-3 WT, below 5 nM; in the test on HIV-1 pNL4-3 V7A, 10 to 50 nM.
The matching figures for `CC(C)C1=C2[C@H]3CC[C@@H]4[C@@]5(C)CC[C@H](OC(=O)[C@H]6C[C@@H](C(=O)O)C6(C)C)C(C)(C)[C@@H]5CC[C@@]4(C)[C@]3(C)CC[C@@]2(NC(=O)C(C)(C)NC(=O)c2ccc(N3CCS(=O)(=O)CC3)cc2)CC1=O` [Example 57, (1R,3S)-3-((((3aR,5aR,5bR,7aR,9S,11aR,11bR,13aS)-3a-(2-(4-(1,1-dioxidothiomorpholino)benzamido)-2-methylpropanamido)-1-isopropyl-5a,5b,8,8,11a-pentamethyl-2-oxo-3,3a,4,5,5a,5b,6,7,7a,8,9,10,11,11a,11b,12,13,13a-octadecahydro-2H-cyclopenta[a]chrysen-9-yl)oxy)carbonyl)-2,2-dimethylcyclobutane-1-carboxylic acid]: below 3 nM, below 50 nM, 5.01 to 10 nM and 10 to 50 nM.
On to `CC(C)C1=C2[C@H]3CC[C@@H]4[C@@]5(C)CC[C@H](OC(=O)[C@H]6C[C@@H](C(=O)O)C6(C)C)C(C)(C)[C@@H]5CC[C@@]4(C)[C@]3(C)CC[C@@]2(NC(=O)C2(NC(=O)c3ccc(Cl)cc3)CCC2)CC1=O` [Example 42, (1R,3S)-3-((((3aR,5aR,5bR,7aR,9S,11aR,11bR,13aS)-3a-(1-(4-chlorobenzamido)cyclobutane-1-carboxamido)-1-isopropyl-5a,5b,8,8,11a-pentamethyl-2-oxo-3,3a,4,5,5a,5b,6,7,7a,8,9,10,11,11a,11b,12,13,13a-octadecahydro-2H-cyclopenta[a]chrysen-9-yl)oxy)carbonyl)-2,2-dimethylcyclobutane-1-carboxylic acid], for which the IC50 in the test with HIV-1 strain 92HT599 (setting [1]) was below 3 nM; in the test with HIV-1 strain 92HT599 (setting [2]), below 50 nM; with HIV-1 pNL4-3 WT, 5.01 to 10 nM; in the test on HIV-1 pNL4-3 V7A, below 10 nM.
The like results for `CC(C)C1=C2[C@H]3CC[C@@H]4[C@@]5(C)CC[C@H](OC(=O)[C@H]6C[C@@H](C(=O)O)C6(C)C)C(C)(C)[C@@H]5CC[C@@]4(C)[C@]3(C)CC[C@@]2(NC(=O)C(C)(C)NC(=O)c2ccc(N3CCOCC3)cc2)CC1=O` [Example 18, (1R,3S)-3-((((3aR,5aR,5bR,7aR,9S,11aR,11bR,13aS)-1-isopropyl-5a,5b,8,8,11a-pentamethyl-3a-(2-methyl-2-(4-morpholinobenzamido)propanamido)-2-oxo-3,3a,4,5,5a,5b,6,7,7a,8,9,10,11,11a,11b,12,13,13a-octadecahydro-2H-cyclopenta[a]chrysen-9-yl)oxy)carbonyl)-2,2-dimethylcyclobutane-1-carboxylic acid] were, in that order, below 3 nM, below 50 nM, below 5 nM and below 10 nM.
The matching figures for `CC(C)C1=C2[C@H]3CC[C@@H]4[C@@]5(C)CC[C@H](OC(=O)[C@H]6C[C@@H](C(=O)O)C6(C)C)C(C)(C)[C@@H]5CC[C@@]4(C)[C@]3(C)CC[C@@]2(NC(=O)C(C)(C)NC(=O)c2cnccn2)CC1=O` [Example 5, (1R,3S)-3-((((3aR,5aR,5bR,7aR,9S,11aR,11bR,13aS)-1-isopropyl-5a,5b,8,8,11a-pentamethyl-3a-(2-methyl-2-(pyrazine-2-carboxamido)propanamido)-2-oxo-3,3a,4,5,5a,5b,6,7,7a,8,9,10,11,11a,11b,12,13,13a-octadecahydro-2H-cyclopenta[a]chrysen-9-yl)oxy)carbonyl)-2,2-dimethylcyclobutane-1-carboxylic acid]: below 3 nM, 50 to 200 nM, below 5 nM and below 10 nM.
Consider `CC(C)C1=C2[C@H]3CC[C@@H]4[C@@]5(C)CC[C@H](OC(=O)[C@H]6C[C@@H](C(=O)O)C6(C)C)C(C)(C)[C@@H]5CC[C@@]4(C)[C@]3(C)CC[C@@]2(NC(=O)C(C)(C)NC(=O)c2cc(C(C)C)n[nH]2)CC1=O` [Example 17, (1R,3S)-3-((((3aR,5aR,5bR,7aR,9S,11aR,11bR,13aS)-1-isopropyl-3a-(2-(3-isopropyl-1H-pyrazole-5-carboxamido)-2-methylpropanamido)-5a,5b,8,8,11a-pentamethyl-2-oxo-3,3a,4,5,5a,5b,6,7,7a,8,9,10,11,11a,11b,12,13,13a-octadecahydro-2H-cyclopenta[a]chrysen-9-yl)oxy)carbonyl)-2,2-dimethylcyclobutane-1-carboxylic acid], for which the IC50 in the test with HIV-1 strain 92HT599 (setting [1]) is below 3 nM; in the test on HIV-1 strain 92HT599 (setting [2]), below 50 nM; in the test on HIV-1 pNL4-3 WT, below 5 nM; in the test on HIV-1 pNL4-3 V7A, below 10 nM.
The like results for `Cc1cnc(C(=O)NC(C)(C)C(=O)N[C@@]23CC[C@]4(C)[C@H](CC[C@@H]5[C@@]6(C)CC[C@H](OC(=O)[C@H]7C[C@@H](C(=O)O)C7(C)C)C(C)(C)[C@@H]6CC[C@]54C)C2=C(C(C)C)C(=O)C3)cn1` [Example 7, (1R,3S)-3-((((3aR,5aR,5bR,7aR,9S,11aR,11bR,13aS)-1-isopropyl-5a,5b,8,8,11a-pentamethyl-3a-(2-methyl-2-(5-methylpyrazine-2-carboxamido)propanamido)-2-oxo-3,3a,4,5,5a,5b,6,7,7a,8,9,10,11,11a,11b,12,13,13a-octadecahydro-2H-cyclopenta[a]chrysen-9-yl)oxy)carbonyl)-2,2-dimethylcyclobutane-1-carboxylic acid] were, in that order, below 3 nM, below 50 nM, below 5 nM and below 10 nM.

Source of the values: patent US11034718B2, “C-3 novel triterpenone with C-17 reverse amide derivatives as HIV inhibitors” (HETERO LABS LIMITED, priority 2015, dated 2021).
